US20050282743A1, “Molecular interactions in cells” (Arbor Vita Corporation, priority 2001, published 2005)
pKd: −log10 of the molar value. Ends that are not written are not given here. Peptide text beside a SMILES is read from it. * marks the point of attachment. Biotin = O=C1N[C@H]2[C@H](CS[C@H]2CCCCC(=O)*)N1

Legend:
Format in all cases: binding
[1] = biological target: T1, PDZ protein (GST-PDZ fusion) (Homo sapiens, UniProt P57105); assay: G' assay (10 uM PL peptide), results of TABLE 7 and TABLE 12; details: PDZ Outer Membrane, PDZ Domain 1
T1 construct: made in house; host or cells: E. coli (DH5alpha, BL21 or JM109)
T1 sequence (P57105 1-145): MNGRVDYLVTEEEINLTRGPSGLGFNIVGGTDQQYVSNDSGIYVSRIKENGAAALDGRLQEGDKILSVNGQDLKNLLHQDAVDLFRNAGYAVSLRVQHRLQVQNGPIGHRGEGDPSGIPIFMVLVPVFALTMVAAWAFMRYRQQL
Procedure, shortened: (§1)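 Binding classes derive from A450 nm of bound biotin-tagged PL peptide. A score of 5 needs A450 above 4 in more than two repeats.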

[2] = biological target: T2, PDZ protein (GST-PDZ fusion) (Homo sapiens, UniProt Q6P0Q8); assay: as above
T2 construct: made in house; host or cells: E. coli (DH5alpha, BL21 or JM109)
Procedure, shortened: as §1

[3] = biological target: T3, PDZ protein (GST-PDZ fusion) (Homo sapiens, UniProt Q9P202); assay: as above; details: PDZ KIAA1526, PDZ Domain 1
T3 construct: made in house; host or cells: E. coli (DH5alpha, BL21 or JM109)
T3 sequence (Q9P202 1-907): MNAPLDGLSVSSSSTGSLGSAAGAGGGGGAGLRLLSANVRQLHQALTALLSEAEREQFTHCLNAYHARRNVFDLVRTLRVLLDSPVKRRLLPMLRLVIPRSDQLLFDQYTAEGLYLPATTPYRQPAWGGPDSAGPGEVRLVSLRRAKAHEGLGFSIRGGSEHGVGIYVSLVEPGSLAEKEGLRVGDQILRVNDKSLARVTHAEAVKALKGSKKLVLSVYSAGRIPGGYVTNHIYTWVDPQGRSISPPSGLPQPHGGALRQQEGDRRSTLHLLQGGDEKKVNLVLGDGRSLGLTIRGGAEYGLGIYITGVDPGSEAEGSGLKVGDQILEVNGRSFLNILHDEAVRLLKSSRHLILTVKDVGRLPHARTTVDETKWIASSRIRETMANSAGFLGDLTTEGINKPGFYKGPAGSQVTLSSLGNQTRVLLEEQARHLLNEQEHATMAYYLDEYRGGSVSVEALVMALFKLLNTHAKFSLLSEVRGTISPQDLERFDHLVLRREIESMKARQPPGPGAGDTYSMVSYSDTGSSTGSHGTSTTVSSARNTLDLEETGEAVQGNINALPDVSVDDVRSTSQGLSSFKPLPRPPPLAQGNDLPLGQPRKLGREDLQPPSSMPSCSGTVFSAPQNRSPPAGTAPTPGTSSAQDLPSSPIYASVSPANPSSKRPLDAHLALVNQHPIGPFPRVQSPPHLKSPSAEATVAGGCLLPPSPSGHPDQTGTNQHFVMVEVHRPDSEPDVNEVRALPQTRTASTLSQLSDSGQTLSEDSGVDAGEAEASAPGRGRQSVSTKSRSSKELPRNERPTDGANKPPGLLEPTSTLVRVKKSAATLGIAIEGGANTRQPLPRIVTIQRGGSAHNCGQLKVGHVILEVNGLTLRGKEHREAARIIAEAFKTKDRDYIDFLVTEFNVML
Procedure, shortened: as §1

[4] = biological target: T4, PDZ-domain polypeptide (GST/PDZ fusion protein) (Homo sapiens, UniProt Q6P0Q8); assay: Apparent affinity (Kd) by titration of PL peptide in the G assay; details: PDZ KIAA0807(S), PDZ Domain 1; titration of the PL peptide; read-out: Peptide Optimal Conc (Kd, dissociation constant)
T4 construct: made in house; host or cells: E. coli (DH5alpha, BL21 or JM109)
Procedure: The third column labeled “Peptide Optimal Concentration” in the tables is a number reflective of the binding interaction between the PL protein and PDZ protein. […] The column labeled “Protein Optimal Concentration” refers to the protein concentration used to assay PL interaction (in ug/ml); a ‘0’ is indicative of 5 ug/ml protein concentration; any other value represents the concentration (in ug/ml) used to determine the dissociation constant for a given interaction.
The “A” and “G” assays described supra can be used to determine the “apparent affinity” of binding of a PDZ ligand peptide to a PDZ-domain polypeptide. Apparent affinity is determined based on the concentration of one molecule required to saturate the binding of a second molecule (e.g., the binding of a ligand to a receptor). Two particularly useful approaches for quantitation of apparent affinity of PDZ-ligand binding are provided infra.
In cases where satisfying the above criteria proves difficult, an alternative approach (infra) can be used.
(1) A fixed concentration of a PDZ-domain polypeptide and increasing concentrations of a labeled PL peptide (labeled with, for example, biotin or fluorescein, see TABLE 9 for representative peptide amino acid sequences) are mixed together in solution and allowed to react. In certain assays, peptide concentrations are 0.1 uM, 1 uM, 10 uM, 100 uM, 1 mM. In other assays, appropriate reaction times can range from 10 minutes to 2 days at temperatures ranging from 4° C. to 37° C. In some instances, the identical reaction can also be carried out using a non-PDZ domain-containing protein as a control (e.g., if the PDZ-domain polypeptide is fusion protein, the fusion partner can be used).
(2) PDZ-ligand complexes can be separated from unbound labeled peptide using a variety of methods known in the art.
(3) The PDZ-ligand complex is detected based on presence of the label on the peptide ligand using a variety of methods and detectors known to one of skill in the art. For example, if the label is fluorescein and the separation is achieved using HPSEC, an in-line fluorescence detector can be used. The binding can also be detected as described supra for the G assay.

[5] = test system: PDZ protein (GST-PDZ fusion); assay: G' assay (10 uM PL peptide), results of TABLE 7 and TABLE 12; details: PDZ SHANK, PDZ Domain 1
Procedure, shortened: as §1

[6] = biological target: T5, PDZ protein (GST-PDZ fusion) (Homo sapiens, UniProt Q5T2W1); assay: as above; details: PDZ PDZK1, PDZ Domain 2, 3, 4
T5 construct: made in house; host or cells: E. coli (DH5alpha, BL21 or JM109)
T5 sequence (Q5T2W1 1-519): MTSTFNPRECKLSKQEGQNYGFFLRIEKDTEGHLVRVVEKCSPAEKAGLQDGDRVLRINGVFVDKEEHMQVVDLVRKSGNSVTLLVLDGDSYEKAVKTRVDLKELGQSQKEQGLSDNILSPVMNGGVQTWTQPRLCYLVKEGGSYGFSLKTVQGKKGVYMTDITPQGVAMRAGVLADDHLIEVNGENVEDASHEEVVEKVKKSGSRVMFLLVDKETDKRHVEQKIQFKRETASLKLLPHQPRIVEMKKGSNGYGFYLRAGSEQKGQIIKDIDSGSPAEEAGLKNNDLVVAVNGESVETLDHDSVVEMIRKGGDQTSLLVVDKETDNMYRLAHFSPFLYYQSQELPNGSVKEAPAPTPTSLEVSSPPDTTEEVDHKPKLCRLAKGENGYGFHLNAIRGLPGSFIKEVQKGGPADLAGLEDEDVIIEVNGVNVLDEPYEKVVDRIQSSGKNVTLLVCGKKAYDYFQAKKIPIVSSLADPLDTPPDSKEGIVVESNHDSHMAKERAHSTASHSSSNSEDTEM
Procedure, shortened: as §1

[7] = biological target: T6, PDZ protein (GST-PDZ fusion) (Homo sapiens, UniProt Q13424); assay: as above; details: PDZ Synt. 1 alpha, PDZ Domain 1
T6 construct: made in house; host or cells: E. coli (DH5alpha, BL21 or JM109)
T6 sequence (Q13424 1-505): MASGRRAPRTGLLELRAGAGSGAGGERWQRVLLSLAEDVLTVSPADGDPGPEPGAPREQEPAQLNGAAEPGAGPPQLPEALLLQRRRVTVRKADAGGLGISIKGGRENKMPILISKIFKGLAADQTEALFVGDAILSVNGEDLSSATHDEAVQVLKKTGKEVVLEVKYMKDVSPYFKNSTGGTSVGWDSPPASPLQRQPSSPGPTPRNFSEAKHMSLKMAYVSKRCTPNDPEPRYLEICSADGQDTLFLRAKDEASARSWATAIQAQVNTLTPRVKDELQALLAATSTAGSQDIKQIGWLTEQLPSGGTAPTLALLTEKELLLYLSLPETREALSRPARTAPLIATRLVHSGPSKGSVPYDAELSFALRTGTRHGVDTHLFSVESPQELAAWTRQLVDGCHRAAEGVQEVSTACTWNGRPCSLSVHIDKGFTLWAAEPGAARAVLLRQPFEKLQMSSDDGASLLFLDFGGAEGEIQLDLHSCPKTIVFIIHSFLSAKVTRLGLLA
Procedure, shortened: as §1

[8] = biological target: T7, PDZ protein (GST-PDZ fusion) (Homo sapiens, UniProt Q13796); assay: as above; details: PDZ hAPXL, PDZ Domain 1
T7 construct: made in house; host or cells: E. coli (DH5alpha, BL21 or JM109)
Procedure, shortened: as §1

T2 sequence (Q6P0Q8 whole entry, the tested form may be a part): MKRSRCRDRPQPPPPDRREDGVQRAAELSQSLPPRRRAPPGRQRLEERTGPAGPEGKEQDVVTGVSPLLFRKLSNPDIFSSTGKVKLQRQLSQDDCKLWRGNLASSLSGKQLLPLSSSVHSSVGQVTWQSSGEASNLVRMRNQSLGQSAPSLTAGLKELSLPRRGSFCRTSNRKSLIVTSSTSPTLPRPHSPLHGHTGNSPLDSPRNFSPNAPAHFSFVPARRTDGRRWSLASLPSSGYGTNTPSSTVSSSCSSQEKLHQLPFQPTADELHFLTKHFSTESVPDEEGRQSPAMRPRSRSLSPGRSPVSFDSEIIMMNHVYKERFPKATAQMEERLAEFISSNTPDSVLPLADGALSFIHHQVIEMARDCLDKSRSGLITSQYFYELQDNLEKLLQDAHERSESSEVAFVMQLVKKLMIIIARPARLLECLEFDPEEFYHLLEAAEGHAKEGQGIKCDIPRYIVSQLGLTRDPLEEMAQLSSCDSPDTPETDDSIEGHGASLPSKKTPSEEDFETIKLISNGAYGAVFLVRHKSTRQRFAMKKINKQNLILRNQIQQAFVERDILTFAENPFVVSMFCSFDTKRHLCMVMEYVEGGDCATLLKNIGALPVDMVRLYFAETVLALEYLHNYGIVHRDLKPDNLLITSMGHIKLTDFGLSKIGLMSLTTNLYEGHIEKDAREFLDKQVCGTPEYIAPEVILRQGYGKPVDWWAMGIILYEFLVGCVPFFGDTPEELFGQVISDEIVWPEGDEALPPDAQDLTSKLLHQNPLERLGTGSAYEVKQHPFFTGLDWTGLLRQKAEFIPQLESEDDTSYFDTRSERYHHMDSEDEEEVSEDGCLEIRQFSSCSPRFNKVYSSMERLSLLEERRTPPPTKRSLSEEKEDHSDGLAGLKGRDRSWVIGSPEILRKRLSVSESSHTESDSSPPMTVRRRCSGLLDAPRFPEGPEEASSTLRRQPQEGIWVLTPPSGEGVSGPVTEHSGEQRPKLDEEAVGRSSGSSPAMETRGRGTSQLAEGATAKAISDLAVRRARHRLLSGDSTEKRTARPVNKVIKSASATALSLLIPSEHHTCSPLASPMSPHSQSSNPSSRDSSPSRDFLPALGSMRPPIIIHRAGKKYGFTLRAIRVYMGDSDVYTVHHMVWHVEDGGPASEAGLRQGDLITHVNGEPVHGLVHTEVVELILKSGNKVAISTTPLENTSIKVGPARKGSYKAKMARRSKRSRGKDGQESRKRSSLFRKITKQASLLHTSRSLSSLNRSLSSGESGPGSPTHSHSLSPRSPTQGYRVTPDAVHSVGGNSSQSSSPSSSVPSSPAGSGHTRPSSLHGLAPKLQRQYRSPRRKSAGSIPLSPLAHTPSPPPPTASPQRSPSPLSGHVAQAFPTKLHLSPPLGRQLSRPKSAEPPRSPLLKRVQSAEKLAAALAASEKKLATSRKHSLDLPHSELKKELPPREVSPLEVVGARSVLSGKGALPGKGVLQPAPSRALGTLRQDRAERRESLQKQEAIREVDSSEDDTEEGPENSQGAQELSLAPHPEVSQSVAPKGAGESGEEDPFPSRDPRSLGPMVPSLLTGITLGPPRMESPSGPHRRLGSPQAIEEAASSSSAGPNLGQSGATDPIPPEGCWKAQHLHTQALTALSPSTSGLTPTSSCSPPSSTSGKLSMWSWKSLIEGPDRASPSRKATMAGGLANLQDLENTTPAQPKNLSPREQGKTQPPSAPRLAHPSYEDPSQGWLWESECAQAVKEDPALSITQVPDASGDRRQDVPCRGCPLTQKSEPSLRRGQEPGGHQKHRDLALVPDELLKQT
T4 sequence (Q6P0Q8 whole entry, the tested form may be a part): as above

Row | Classification [1] | Classification ([2]; PDZ KIAA0807(S), PDZ Domain 1) | Classification ([2]; PDZ KIAA807, PDZ Domain not given) | Classification [3] | pKd [4] | Classification [6] | Classification ([2]; PDZ KIAA807) | Classification [7] | Classification [8] | Compound | Classification [5]
1 | 2 (A450 nm 1-2) | 4 (A450 nm 3-4) | 3 (A450 nm 2-3) | 2 (A450 nm 1-2) | 5.40 | – | – | – | – | CC[C@H](C)[C@H](NC(=O)[C@H](CO)NC(=O)[C@@H](NC(=O)CNC(=O)[C@H](CCCNC(=N)N)NC(=O)[C@H](CC(=O)O)NC(=O)[C@@H]1CCCN1C(=O)[C@H](CC(=O)O)NC(=O)[C@H](CC(N)=O)NC(=O)CNC(=O)[C@H](CC(C)C)NC(=O)[C@H](CC(N)=O)NC(=O)[C@H](CC(C)C)NC(=O)CNC(=O)[C@H](CC(C)C)NC(=O)[C@@H](NC(=O)[C@@H]1CCCN1C(=O)[C@@H](NC(=O)[C@@H]1CCCN1C(=O)[C@H](CCC(N)=O)NC(=O)CCCC[C@@H]1SC[C@@H]2NC(=O)N[C@@H]21)[C@@H](C)O)[C@@H](C)O)[C@@H](C)O)C(=O)O [GluR delta-2] (Biotin-QPTPTLGLNLGNDPDRGTSI-OH; C-terminus assumed) | –
2 | – | 1 (A450 nm 0-1) | – | – | – | 1 (A450 nm 0-1) | 1 (A450 nm 0-1) | 1 (A450 nm 0-1) | 1 (A450 nm 0-1) | DAKLKSDGTIAAITEKETHF (Biotin-DAKLKSDGTIAAITEKETHF) [GABA transporter 3] | 1 (A450 nm 0-1)
